Reference: publication PMC4336144, “Screening the Medicines for Malaria Venture "Malaria Box" against the Plasmodium falciparum Aminopeptidases, M1, M17 and M18” (PLoS ONE, 2015)

How the values were obtained:
PfA-M1 and/or PfA-M17 = test: Multiplex primary screen, fluorogenic substrate Leu-Mec; assay type: biochemical, Plasmodium falciparum; conditions: 100 μM compound, multiplex assay
Description: A multiplex enzyme assay was developed to complete the primary screen of 400 compounds that were provided to us by MMV and SCYNEXIS. Combined PfMAP (15 nM PfA-M1; 80 nM PfA-M17 and 125 nM PfM18AAP) aminopeptidase activity in the presence of a single MMV compound (100 μM solubilized in 100% dimethyl sulfoxide, DMSO, final DMSO concentration in assay = 10%) was determined by simultaneous measurement of the release of the fluorogenic leaving group, -NHMec, from L-Leucine-7-amido-4-methylcoumarin-HCl (Leu-Mec) (Sigma) as well as the hydrolysis of p-nitroanilide from the chromogenic substrate, L-Glutamic acid p-nitroanilide (Glu-pNA) (Sigma). The fluorogenic substrate records the combined activity of PfA-M1 and PfA-M17 while the p-nitroanilide substrate is specific for PfM18AAP. Reactions were carried out in 96-well microtitre plates (200 μL total volume) in 50 mM Tris-HCl pH 8.0, 2 mM CoCl2 at 37°C. Following a 10 min incubation (multi-enzyme and single compound) at 37°C, reactions were initiated by addition of both fluorogenic and chromagenic substrates. Progress curves were monitored using a FLUOstar Omega multimode reader (BMG LabTech) for 1.5 h at 37°C. As activity references, individual enzyme and multiple enzyme 'no compound' controls and 'positive inhibitor' controls (with 10% DMSO) were included in each 96 well plate assay.

PfA-M1 = target: T1, PfA-M1 (Plasmodium falciparum, UniProt O96935); test: Secondary screening against individual enzyme; assay type: biochemical; conditions: 100 μM compound, n = 3
T1 construct: made in house; host or cells: Escherichia coli
T1 sequence (O96935 195-1085 limits assumed): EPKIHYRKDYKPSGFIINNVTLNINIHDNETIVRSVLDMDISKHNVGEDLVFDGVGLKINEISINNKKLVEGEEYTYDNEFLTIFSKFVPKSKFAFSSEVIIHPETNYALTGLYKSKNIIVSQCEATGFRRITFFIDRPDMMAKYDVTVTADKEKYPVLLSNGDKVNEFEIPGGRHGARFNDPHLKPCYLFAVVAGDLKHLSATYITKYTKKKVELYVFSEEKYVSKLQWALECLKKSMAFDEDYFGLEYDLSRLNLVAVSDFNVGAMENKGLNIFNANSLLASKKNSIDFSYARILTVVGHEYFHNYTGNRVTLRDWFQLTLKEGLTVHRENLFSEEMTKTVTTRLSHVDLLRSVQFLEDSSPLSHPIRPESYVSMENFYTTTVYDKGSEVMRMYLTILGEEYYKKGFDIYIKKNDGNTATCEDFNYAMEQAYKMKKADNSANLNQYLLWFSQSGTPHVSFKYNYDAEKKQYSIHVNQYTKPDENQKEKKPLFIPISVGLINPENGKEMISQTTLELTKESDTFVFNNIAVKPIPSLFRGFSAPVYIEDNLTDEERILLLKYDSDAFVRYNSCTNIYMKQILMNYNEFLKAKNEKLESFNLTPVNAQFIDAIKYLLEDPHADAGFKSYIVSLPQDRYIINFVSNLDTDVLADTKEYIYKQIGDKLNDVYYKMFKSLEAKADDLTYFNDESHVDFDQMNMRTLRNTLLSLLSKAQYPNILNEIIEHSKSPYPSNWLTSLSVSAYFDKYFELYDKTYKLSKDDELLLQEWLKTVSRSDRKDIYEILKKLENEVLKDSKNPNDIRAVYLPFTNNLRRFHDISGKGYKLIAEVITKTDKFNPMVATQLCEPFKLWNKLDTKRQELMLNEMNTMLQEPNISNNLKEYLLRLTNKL
Description: Aminopeptidase activity of each individual enzyme in the presence of a single MMV compound (100 μM) was determined using Leu-Mec for both PfA-M1 (15 nM) and PfA-M17 (80 nM) or Glu-pNA for PfM18AAP (125 nM). Reactions were carried out in 96-well microtitre plates (200 μl total volume) in 50 mM Tris-HCl pH 8.0, 2 mM CoCl2 at 37°C. Following a 10 min incubation (enzyme and compound) at 37°C, reactions were initiated by addition of enzyme specific substrate. Progress curves were monitored using a FLUOstar Omega multimode reader (BMG LabTech) for 1.5 h at 37°C. As activity references, individual enzyme 'no compound' controls and 'positive inhibitor' controls were included in each 96 well plate assay. We applied a cut-off of < 10% activity in the presence of 100 μM compound for selection to the next phase. Compounds that were selected to proceed were then used in further assays to obtain n = 3.

reduction of PfA-M1 activity (PfA-M1)	SMILES	Activity (PfA-M1 and/or PfA-M17) (PfA-M1 and/or PfA-M17)
–	Nc1ccc(-c2nc3cc(Oc4ccc(Oc5ccc6[nH]c(-c7ccc(N)cc7)nc6c5)cc4)ccc3[nH]2)cc1 [MMV011895]	R
–	O=C(Nc1ccc(-c2nc3cc4ccccc4cc3[nH]2)cc1)c1cccc(Br)c1 [MMV019241]	R
–	COc1ccc(C=C2SC(Nc3ccc(F)cc3)=NC2=O)c(OC)c1 [MMV084434]	R
–	COc1ccc(CCN2C(=O)c3[nH]nc(-c4cc(Cl)c(C)cc4O)c3C2c2ccccc2F)cc1 (stereo not shown) [MMV396717]	R
–	O=C(NNc1cc(N2CCCC2)nc(N2CCCC2)n1)c1ccccc1 [MMV396770]	R
75%	Cc1cccc(-n2ncc3c(O)nc(-n4nc(C)cc4NC(=O)c4cc5ccccc5o4)nc32)c1 [MMV403679]	R
–	Oc1c(C(Nc2ccccn2)c2cccc(Oc3ccccc3)c2)ccc2cccnc12 (stereo not shown) [MMV665814]	R
–	CCOC(=O)c1c(NC(=O)c2ccccc2)sc2c(O)c(CN(CC)CC)ccc12 [MMV665831]	R
–	COc1ccc(/C=C2/SC(=Nc3ccccc3)NC2=O)cc1 [MMV665836]	R
–	Cc1ccc(-c2cc(C(=O)Nc3ccc(S(=O)(=O)N4CCCCC4)cc3)[nH]n2)c(O)c1 [MMV665906]	R
–	COc1cccc(C(=O)NC(c2ccc(C)cc2)c2cc(Cl)c3cccnc3c2O)c1 (stereo not shown) [MMV665969]	R
–	COc1ccc(C(=O)NC(c2ccccc2Cl)c2cc(Cl)c3cccnc3c2O)cc1 (stereo not shown) [MMV666022]	R
87%	COc1ccc(C(=O)NC(c2ccc(Cl)cc2Cl)c2cc(Cl)c3cccnc3c2O)cc1 (stereo not shown) [MMV666054]	R
–	COc1ccc(C=C2SC(=N)N(c3ccccc3OC)C2=O)cc1 [MMV666691]	R
